Patent US6509371B1, “Compositions containing Bergamottin for increasing the oral bioavailability of pharmaceutical agents” (Warner-Lambert Company, priority 1997, dated 2003)

Tests used:
P450 2D6 = biological target: T1, P450 2D6 (Homo sapiens, UniProt P10635); experiment: Human liver microsomes, racemic bufurolol 1′-hydroxylation; type: biochemical; settings: pooled human liver microsomes
T1 construct: Pooled human liver microsomes; from tissue; host or cells: human liver microsomes, pool of 6
T1 sequence (P10635 whole entry): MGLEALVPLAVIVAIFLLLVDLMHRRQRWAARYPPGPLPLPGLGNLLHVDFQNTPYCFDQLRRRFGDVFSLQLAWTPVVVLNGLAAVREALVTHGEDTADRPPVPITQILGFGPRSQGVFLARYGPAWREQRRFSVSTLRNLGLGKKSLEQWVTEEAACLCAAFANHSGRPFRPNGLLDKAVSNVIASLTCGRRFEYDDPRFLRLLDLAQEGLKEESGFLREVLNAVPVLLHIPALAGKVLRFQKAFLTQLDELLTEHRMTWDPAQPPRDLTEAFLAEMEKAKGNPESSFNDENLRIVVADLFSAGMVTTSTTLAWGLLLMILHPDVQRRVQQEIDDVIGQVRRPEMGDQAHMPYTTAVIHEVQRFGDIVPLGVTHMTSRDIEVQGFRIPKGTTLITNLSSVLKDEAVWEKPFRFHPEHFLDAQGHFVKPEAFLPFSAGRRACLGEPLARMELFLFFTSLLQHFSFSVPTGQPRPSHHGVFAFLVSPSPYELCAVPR
Protocol: (§1) Human liver tissues were obtained from the University of Chicago Distribution Center of […] (Liver Transplant Procurement and Distribution Service, University of Minnesota, Minneapolis, Minn.), Human Biologics Inc. (Phoenix, Ariz.) and the International Institute for the Advancement of Science (Exton, Pa.). The liver microsomes were prepared by differential centrifugation. Caffeine N3-demethylation (Tassaneeyakul W., Mohammed […]., Veronese M. E., Tukey R. H., Quattrochi […]., and Miners J. O. Caffeine as a probe for human cytochromes P450: Validation using cDNA-expression,immunoinhibition, and microsomal kinetic and inhibitor techniques. Pharmacogenetics, 1992;2:173-183), coumarin 7-hydroxylation ([…]. Metabolism of coumarin by rat, gerbil, and human liver microsomes. Xenobiotica, 1992;22:357-367), tolbutamide hydroxylation (Miners J. O., Smith K. J., Robson […]., Veronese M. E., and Birkett D. J. Tolbutamide hydroxylation by human liver microsomes: Kinetic characterization and relationship to other cytochrome P-450 dependent xenobiotic oxidations. Biochem. Pharmacol., 1988;37:1137-1144), racemic bufurolol 1'-hydroxylation ([…]., Gut […]., and Meyer U. A. […] Anal. […] S. Hydroxylation of chlorzoxazone as a specific probe for human liver cytochrome P-450 IIEI. Chem. Res. […] The reactions were initiated by the additions of 1 mM NADPH and terminated in ice. […]

P450 3A4 [1] = biological target: T2, P450 3A4 (Homo sapiens, UniProt P08684); experiment: BG-mediated inactivation of P450 3A4 in a reconstituted system, testosterone 6β-hydroxylation activity
Target sequence in this assay (P08684 with tags, fused parts or gaps): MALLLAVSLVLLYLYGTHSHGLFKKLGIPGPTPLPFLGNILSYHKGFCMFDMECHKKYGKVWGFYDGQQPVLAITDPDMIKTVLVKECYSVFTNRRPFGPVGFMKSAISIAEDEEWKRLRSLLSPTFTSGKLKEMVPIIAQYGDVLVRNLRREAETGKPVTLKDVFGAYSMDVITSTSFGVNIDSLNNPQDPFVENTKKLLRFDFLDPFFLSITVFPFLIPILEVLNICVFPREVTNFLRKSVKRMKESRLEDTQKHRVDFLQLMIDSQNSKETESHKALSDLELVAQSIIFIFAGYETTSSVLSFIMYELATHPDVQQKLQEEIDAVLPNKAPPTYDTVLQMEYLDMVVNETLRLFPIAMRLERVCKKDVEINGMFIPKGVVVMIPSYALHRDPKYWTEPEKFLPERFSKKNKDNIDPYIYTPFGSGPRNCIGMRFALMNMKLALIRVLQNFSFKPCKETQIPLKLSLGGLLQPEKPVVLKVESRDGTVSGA

P450 2A6 = biological target: T3, P450 2A6 (Homo sapiens, UniProt P11509); experiment: Human liver microsomes, coumarin 7-hydroxylation; type: biochemical; settings: pooled microsomes, 4 μM coumarin
T3 construct: Pooled human liver microsomes; from tissue; host or cells: human liver microsomes, pool of 6
T3 sequence (P11509 1-494): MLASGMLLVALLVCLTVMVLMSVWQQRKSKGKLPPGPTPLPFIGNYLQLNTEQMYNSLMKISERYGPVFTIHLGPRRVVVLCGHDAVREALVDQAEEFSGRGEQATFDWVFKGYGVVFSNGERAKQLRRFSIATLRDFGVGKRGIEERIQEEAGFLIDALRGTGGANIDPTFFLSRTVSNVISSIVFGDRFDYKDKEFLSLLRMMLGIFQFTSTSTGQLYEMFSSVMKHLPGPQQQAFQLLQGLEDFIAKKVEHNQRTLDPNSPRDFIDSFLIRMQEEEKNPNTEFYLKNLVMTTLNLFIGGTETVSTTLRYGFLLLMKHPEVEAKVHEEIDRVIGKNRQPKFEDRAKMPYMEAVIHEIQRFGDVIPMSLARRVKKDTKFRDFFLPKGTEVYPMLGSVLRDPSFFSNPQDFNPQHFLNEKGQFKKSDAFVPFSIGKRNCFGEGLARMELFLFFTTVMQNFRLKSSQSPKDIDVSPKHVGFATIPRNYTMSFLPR
Protocol: as §1

P450 2E1 = biological target: T4, P450 2E1 (Homo sapiens, UniProt P05181); experiment: Human liver microsomes, chlorzoxazone 6-hydroxylation; type: biochemical; settings: pooled human liver microsomes
T4 construct: Pooled human liver microsomes; from tissue; host or cells: human liver microsomes, pool of 6
T4 sequence (P05181 whole entry): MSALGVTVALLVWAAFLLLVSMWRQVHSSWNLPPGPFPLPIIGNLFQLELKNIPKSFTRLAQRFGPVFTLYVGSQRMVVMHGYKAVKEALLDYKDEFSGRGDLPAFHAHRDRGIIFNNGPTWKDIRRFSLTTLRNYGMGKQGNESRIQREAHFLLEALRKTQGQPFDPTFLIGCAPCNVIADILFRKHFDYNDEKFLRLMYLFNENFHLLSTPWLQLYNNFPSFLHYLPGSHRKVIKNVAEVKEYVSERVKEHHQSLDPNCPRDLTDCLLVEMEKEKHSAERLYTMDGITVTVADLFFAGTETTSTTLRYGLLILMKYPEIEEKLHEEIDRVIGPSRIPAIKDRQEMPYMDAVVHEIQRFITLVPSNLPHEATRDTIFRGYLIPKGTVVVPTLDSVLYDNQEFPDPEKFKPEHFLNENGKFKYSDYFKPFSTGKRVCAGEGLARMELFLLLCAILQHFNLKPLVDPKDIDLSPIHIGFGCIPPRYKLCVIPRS
Protocol: as §1

P450 3A4 [2] = biological target: T2, P450 3A4; experiment: P450 content by reduced-CO difference spectrum after incubation in the reconstituted system; type: biochemical; set-up: A full-length P450 3A4 cDNA (except for the deletion of codons 3-12 at the 5′-end); made in house; host or cells: E. coli MV1304 (pCW vector); settings: 50 μM BG, 15 minutes; for P450: 37° C.
Protocol: Reactions with various concentrations of BG were initiated by addition of 1 mM NADPH, and terminated on ice. The incubations were performed at 37° C. for the time periods indicated. […] The spectra were recorded between 330 to 700 nm against the diluting buffer as reference on a […] spectrophotometer in the split beam mode.
Target sequence in this assay (P08684 with tags, fused parts or gaps): as the sequence (P08684 with tags, fused parts or gaps) above

P450 3A4 [3] = biological target: T2, P450 3A4; experiment: HPLC analysis of BG-inactivated P450 3A4 on a Poros column; type: biochemical; set-up: A full-length P450 3A4 cDNA (except for the deletion of codons 3-12 at the 5′-end); made in house; host or cells: E. coli MV1304 (pCW vector)
Excerpt: S., Hopkins N. E., Alworth D. A., and Hollenberg P. F. […] The eluate was monitored by UV detection at […], 310, and 405 nm simultaneously.
Target sequence in this assay (P08684 with tags, fused parts or gaps): as above

P450 3A4 [4] = biological target: T2, P450 3A4; experiment: Human liver microsomes, testosterone 6β-hydroxylation; type: biochemical; settings: pooled human liver microsomes
Protocol: (§2) Human liver tissues were obtained from the University of Chicago Distribution Center of […] (Liver Transplant Procurement and Distribution Service, University of Minnesota, Minneapolis, Minn.), Human Biologics Inc. (Phoenix, Ariz.) and the International Institute for the Advancement of Science (Exton, Pa.). The liver microsomes were prepared by differential centrifugation. […] Anal. […] S. Hydroxylation of chlorzoxazone as a specific probe for human liver cytochrome P-450 IIEI. Chem. Res. […] The reactions were initiated by the additions of 1 mM NADPH and terminated in ice. […] A. Assay of mephenytoin metabolism in human liver microsomes by high-performance liquid chromatography. […] Experimental controls consisted of the complete incubation components without the addition of BG.
Target sequence in this assay (P08684 whole entry): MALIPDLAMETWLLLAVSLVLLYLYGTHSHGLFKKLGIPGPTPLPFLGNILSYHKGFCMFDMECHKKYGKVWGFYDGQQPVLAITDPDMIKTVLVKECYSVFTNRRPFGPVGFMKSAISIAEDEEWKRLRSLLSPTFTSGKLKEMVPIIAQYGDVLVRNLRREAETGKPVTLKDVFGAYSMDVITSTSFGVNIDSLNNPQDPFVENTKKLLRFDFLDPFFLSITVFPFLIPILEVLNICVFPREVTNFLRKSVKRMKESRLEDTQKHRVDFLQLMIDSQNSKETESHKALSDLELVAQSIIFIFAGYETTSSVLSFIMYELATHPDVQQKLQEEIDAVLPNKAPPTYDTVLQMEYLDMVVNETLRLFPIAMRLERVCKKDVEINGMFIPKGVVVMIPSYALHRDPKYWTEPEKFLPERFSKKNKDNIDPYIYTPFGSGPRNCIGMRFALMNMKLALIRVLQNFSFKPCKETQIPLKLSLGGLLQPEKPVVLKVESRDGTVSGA

P450 1A2 = biological target: T5, P450 1A2 (Homo sapiens, UniProt P05177); experiment: Human liver microsomes, caffeine N3-demethylation; type: biochemical; settings: pooled microsomes, 100 μM caffeine
T5 sequence (P05177 1-516): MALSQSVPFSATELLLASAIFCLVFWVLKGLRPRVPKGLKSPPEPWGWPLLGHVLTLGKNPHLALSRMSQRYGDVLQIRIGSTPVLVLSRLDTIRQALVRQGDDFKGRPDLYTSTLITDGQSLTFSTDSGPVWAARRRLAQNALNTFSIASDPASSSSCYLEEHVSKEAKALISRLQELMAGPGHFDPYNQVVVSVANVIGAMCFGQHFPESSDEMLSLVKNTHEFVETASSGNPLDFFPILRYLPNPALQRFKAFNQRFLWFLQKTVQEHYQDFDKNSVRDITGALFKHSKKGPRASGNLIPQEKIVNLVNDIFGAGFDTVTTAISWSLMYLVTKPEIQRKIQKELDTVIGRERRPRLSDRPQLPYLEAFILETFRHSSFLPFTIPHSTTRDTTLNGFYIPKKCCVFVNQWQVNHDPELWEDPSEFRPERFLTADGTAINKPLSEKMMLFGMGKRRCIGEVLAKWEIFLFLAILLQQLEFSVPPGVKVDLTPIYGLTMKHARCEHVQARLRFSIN
Protocol: as §1

P450 2C19 = biological target: T6, P450 2C19 (Homo sapiens, UniProt P33261); experiment: Human liver microsomes, (S)-mephenytoin 4′-hydroxylation; type: biochemical; settings: pooled human liver microsomes, probe (S)-mephenytoin (50 μM), read-out: P450 2C19 activity inhibited
T6 construct: incubated with pooled human liver microsomes; from tissue; host or cells: pooled human liver microsomes
T6 sequence (P33261 whole entry): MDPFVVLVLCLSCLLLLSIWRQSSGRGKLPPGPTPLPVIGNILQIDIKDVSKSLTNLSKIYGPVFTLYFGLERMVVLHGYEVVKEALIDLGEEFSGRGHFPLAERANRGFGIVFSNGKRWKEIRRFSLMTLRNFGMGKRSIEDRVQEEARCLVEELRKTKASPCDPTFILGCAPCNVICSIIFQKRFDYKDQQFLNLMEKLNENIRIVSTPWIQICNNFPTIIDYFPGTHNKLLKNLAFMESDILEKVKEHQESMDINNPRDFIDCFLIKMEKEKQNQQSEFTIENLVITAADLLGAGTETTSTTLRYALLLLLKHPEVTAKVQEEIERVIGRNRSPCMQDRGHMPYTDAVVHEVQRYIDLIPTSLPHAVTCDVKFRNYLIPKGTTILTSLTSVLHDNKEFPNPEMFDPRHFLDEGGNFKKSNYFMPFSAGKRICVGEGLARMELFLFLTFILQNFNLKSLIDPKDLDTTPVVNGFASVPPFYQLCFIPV
Protocol: as §1

P450 2C9 = biological target: T7, P450 2C9 (Homo sapiens, UniProt P11712); experiment: Human liver microsomes, tolbutamide hydroxylation; type: biochemical; settings: pooled human liver microsomes
T7 construct: Pooled human liver microsomes; from tissue; host or cells: human liver microsomes, pool of 6
T7 sequence (P11712 whole entry): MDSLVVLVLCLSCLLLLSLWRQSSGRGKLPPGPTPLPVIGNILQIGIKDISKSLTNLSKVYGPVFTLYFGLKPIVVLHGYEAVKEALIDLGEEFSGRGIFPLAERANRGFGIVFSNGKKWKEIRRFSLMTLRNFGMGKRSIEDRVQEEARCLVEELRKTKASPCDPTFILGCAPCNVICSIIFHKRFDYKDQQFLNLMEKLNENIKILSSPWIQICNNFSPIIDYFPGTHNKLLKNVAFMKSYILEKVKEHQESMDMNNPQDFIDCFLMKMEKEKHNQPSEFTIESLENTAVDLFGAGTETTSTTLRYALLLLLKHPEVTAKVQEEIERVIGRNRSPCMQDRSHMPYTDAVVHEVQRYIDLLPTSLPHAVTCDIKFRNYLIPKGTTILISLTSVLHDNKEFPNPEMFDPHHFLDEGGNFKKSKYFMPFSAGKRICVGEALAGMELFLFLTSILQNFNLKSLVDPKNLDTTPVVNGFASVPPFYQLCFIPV
Protocol: as §2

[5] = human, pH 7.5, probe testosterone (200 μM), 6β-hydroxylation

IC50 (P450 2D6): ~3 µM | inactivation of testosterone 6β-hydroxylation activity (P450 3A4 [1]; 2 μM BG with α-naphathoflavone 6 to 50 μM): about 55% | loss of testosterone 6β-hydroxylation activity (P450 3A4 [1]; 50 μM BG, with NADPH, 37° C., 15 minutes): 90% | Testosterone 6β-hydroxylation (P450 3A4 [1]; BG+/NADPH+, 50 μM BG, 37° C., 15 minutes): 0.8 nmol/min/nmol | Testosterone 6β-hydroxylation (P450 3A4 [1]; BG+/NADPH−, 50 μM BG, 37° C., 15 minutes): 2.9 nmol/min/nmol | KI (inactivation) (P450 3A4 [1]; [5]): 7.7 µM | inhibition at 50 μM (P450 3A4 [1]; [5]): ~60% | inhibition at […] (P450 3A4 [1]; [5]): ~55% | kinact (P450 3A4 [1]; read-out: Kinactivation (maximal rate constant of inactivation)): 0.005 s⁻¹ | Kinactivation (maximal rate constant of inactivation) (P450 3A4 [1]; reconstituted system): 0.3 min⁻¹ | P450 2A6 activity in human liver microsomes (P450 2A6): inhibited | IC50 (P450 2E1): ~3.9 µM | decrease of P450 content (reduced-CO spectrum) (P450 3A4 [2]; with NADPH): approximately 40% | P450 (P450 3A4 [2]; BG+/NADPH+): 0.27 nmol/mL | P450 (P450 3A4 [2]; BG+/NADPH−): 0.47 nmol/mL | decrease of the amount of apoP450 3A4 (P450 3A4 [3]; 50 μM BG, reverse phase HPLC, vs −NADPH control): about 50% | heme recovered (P450 3A4 [3]; BG inactivated P450 3A4 sample): Approximately 90% | reductase and cytochrome b5 protein recovered from the column (P450 3A4 [3]; compared with −NADPH controls): ~100% | IC50 (P450 3A4 [4]): ~4.6 µM | P450 1A2 activity in human liver microsomes (P450 1A2): inhibited | inhibition at 2 μM (P450 2C19; 2 μM BG): ~71% | inhibition at 20 μM (P450 2C19; 20 μM BG): ~100% | IC50 (P450 2C9): ~2400 nM
SMILES: CC(C)=CCC/C(C)=C/COc1c2ccoc2cc2oc(=O)ccc12 [BG, (E)-4-[(3,7-dimethyl-2,6-octadienyl)oxy]-7H-furo[3,2-g][1]benzopyran-7-one]
